Measured values published in patent US11452726B2, “Salts of 2-fluoro-N-methyl-4-[7-(quinolin-6-yl-methyl)-imidazo[1,2-b][1,2,4]triazin-2-yl]benzamide and processes related to preparing the same” (Incyte Corporation, priority 2008, dated 2022).

Assays:
physchem = settings: 25 °C, thermodynamic from solid
[1] = Equilibrium solubility in aqueous solvents, concentration by HPLC; settings: 25° C., mixing at least 12 hours, listed as dihydrochloric acid salt, dihydrochloride
[2] = 0.1 N aqueous HCl, simulated gastric fluid
[3] = pH 7.4 buffer, pH 7.4, aqueous buffer
[4] = pH 8.0 buffer, pH 8, aqueous buffer

SMILES | solubility (physchem; [2]) [µg/mL] | solubility (physchem; [3]) [µg/mL] | solubility (physchem; [4]) [µg/mL] | solubility (physchem; water) [µg/mL] | solubility in water [1]
CNC(=O)c1ccc(-c2cnc3ncc(Cc4ccc5ncccc5c4)n3n2)cc1F.Cl.Cl [Compound 21, 2-Fluoro-N-methyl-4-(7-(quinolin-6-ylmethyl)imidazo[1,2-b][1,2,4]triazin-2-yl)benzamide dihydrochloride] | ~24000 | 2 | 2 | ~4900 | approximately 4.5 mg/mL
CNC(=O)c1ccc(-c2cnc3ncc(Cc4ccc5ncccc5c4)n3n2)cc1F.O=S(=O)(O)c1ccccc1.O=S(=O)(O)c1ccccc1 [dibenzenesulfonic acid salt, 2-Fluoro-N-methyl-4-[7-(quinolin-6-ylmethyl)imidazolo[1,2-b][1,2,4]triazin-2-yl]benzamide dibenzenesulfonic acid salt] | ≥ 29000 | 3 | 3 | ~3900 | –
